Laboratory results published in ChEMBL document CHEMBL1201862, “PubChem BioAssay data set” (2004).
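Dose response: 5 concentrations. Exposure: 48 h. Format: 96-well plates. Endpoint: linear interpolation; highest concentration if not reached. GI50 is the concentration that inhibits growth by half.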 Calls of active or inactive are those of the source. Rule as the data show it: active = GI50 up to about 1.1 µM and inactive = higher.

Assays:
Experiment in all cases: DTP human tumour cell line panel, 48 h
XF498 = tested on: XF498
SF-295 = tested on: SF-295
SK-MEL-28 = tested on: SK-MEL-28
LOX IMVI = tested on: LOX IMVI
COLO 205 = tested on: COLO 205
HT-29 = tested on: HT-29
A498 = tested on: A498
HCT-15 = tested on: HCT-15
OVCAR-3 = tested on: OVCAR-3
CCRF-CEM = tested on: CCRF-CEM
HOP-18 = tested on: HOP-18
UO-31 = tested on: UO-31
M14 = tested on: M14
UACC-257 = tested on: UACC-257
LXFL 529 = tested on: LXFL 529
MOLT-4 = tested on: MOLT-4
DLD-1 = tested on: DLD-1
K562 = tested on: K562
NCI-H226 = tested on: NCI-H226
SK-MEL-5 = tested on: SK-MEL-5
OVCAR-4 = tested on: OVCAR-4
SF-539 = tested on: SF-539
EKVX = tested on: EKVX
HCT-116 = tested on: HCT-116
SN12C = tested on: SN12C
IGROV-1 = tested on: IGROV-1
CAKI-1 = tested on: CAKI-1
SF-268 = tested on: SF-268
SR = tested on: SR
OVCAR-8 = tested on: OVCAR-8
UACC-62 = tested on: UACC-62
RXF 631 = tested on: RXF 631
HOP-62 = tested on: HOP-62
NCI-H23 = tested on: NCI-H23
M19-MEL = tested on: M19-MEL
HCC 2998 = tested on: HCC 2998
Malme-3M = tested on: Malme-3M
OVCAR-5 = tested on: OVCAR-5
SK-OV-3 = tested on: SK-OV-3
RXF 393 = tested on: RXF 393
HOP-92 = tested on: HOP-92
HL-60 = tested on: HL-60
NCI-H460 = tested on: NCI-H460
SW-620 = tested on: SW-620
SNB-19 = tested on: SNB-19
A549 = tested on: A549
SNB-75 = tested on: SNB-75
NCI-H522 = tested on: NCI-H522
TK-10 = tested on: TK-10
SK-MEL-2 = tested on: SK-MEL-2
DMS-114 = tested on: DMS-114
KM12 = tested on: KM12
SNB-78 = tested on: SNB-78
KM-20L2 = tested on: KM-20L2
U-251 = tested on: U-251
ACHN = tested on: ACHN
RPMI-8226 = tested on: RPMI-8226
DMS-273 = tested on: DMS-273
786-0 = tested on: 786-0

## C/C(CC(=O)Nc1ccc(NC(=O)C/C(C)=N\NC(N)=O)cc1)=N/NC(N)=O
XF498
  GI50: > 92.3 µM (inactive)
SF-295
  GI50: > 100 µM (inactive)
SK-MEL-28
  GI50: > 44.4 µM (inactive)
LOX IMVI
  GI50: > 42.5 µM (inactive)
COLO 205
  GI50: > 50.9 µM (inactive)
HT-29
  GI50: 96.8 µM (inactive)
A498
  GI50: > 100 µM (inactive)
HCT-15
  GI50: > 42.3 µM
OVCAR-3
  GI50: 49.5 µM (inactive)
CCRF-CEM
  GI50: > 62.8 µM (inactive)
HOP-18
  GI50: 63 µM (inactive)
UO-31
  GI50: > 85.1 µM (inactive)
M14
  GI50: 65.3 µM (inactive)
UACC-257
  GI50: > 100 µM (inactive)
LXFL 529
  GI50: 65.9 µM (inactive)
MOLT-4
  GI50: 47.2 µM (inactive)
DLD-1
  GI50: > 45.2 µM (inactive)
K562
  GI50: 52.7 µM (inactive)
NCI-H226
  GI50: > 100 µM (inactive)
SK-MEL-5
  GI50: > 100 µM (inactive)
OVCAR-4
  GI50: 96.2 µM (inactive)
SF-539
  GI50: > 100 µM (inactive)
EKVX
  GI50: > 74.3 µM (inactive)
HCT-116
  GI50: > 68.9 µM (inactive)
SN12C
  GI50: > 100 µM (inactive)
IGROV-1
  GI50: > 100 µM (inactive)
CAKI-1
  GI50: > 100 µM (inactive)
SF-268
  GI50: > 60 µM (inactive)
SR
  GI50: 38.5 µM (inactive)
OVCAR-8
  GI50: > 100 µM (inactive)
UACC-62
  GI50: > 84.9 µM (inactive)
RXF 631
  GI50: 33 µM (inactive)
HOP-62
  GI50: > 100 µM (inactive)
NCI-H23
  GI50: 98.4 µM (inactive)
M19-MEL
  GI50: > 100 µM (inactive)
HCC 2998
  GI50: > 100 µM (inactive)
Malme-3M
  GI50: > 100 µM (inactive)
OVCAR-5
  GI50: > 100 µM (inactive)
SK-OV-3
  GI50: > 100 µM (inactive)
RXF 393
  GI50: > 91.4 µM (inactive)
HOP-92
  GI50: 71.1 µM (inactive)
HL-60
  GI50: > 61.7 µM (inactive)
NCI-H460
  GI50: > 62.4 µM (inactive)
SW-620
  GI50: > 100 µM (inactive)
SNB-19
  GI50: > 100 µM (inactive)
A549
  GI50: > 100 µM (inactive)
SNB-75
  GI50: > 93.5 µM (inactive)
NCI-H522
  GI50: > 51.5 µM (inactive)
TK-10
  GI50: > 68.7 µM (inactive)
SK-MEL-2
  GI50: > 95.3 µM (inactive)
DMS-114
  GI50: > 35.6 µM (inactive)
KM12
  GI50: > 100 µM (inactive)
SNB-78
  GI50: > 100 µM (inactive)
KM-20L2
  GI50: > 100 µM (inactive)
U-251
  GI50: > 78 µM (inactive)
ACHN
  GI50: 99.8 µM (inactive)
RPMI-8226
  GI50: 24.8 µM (inactive)
DMS-273
  GI50: > 37.1 µM (inactive)
786-0
  GI50: > 68.9 µM (inactive)
